In patent US10105357B2, “Indication of antibiotic drugs for preparation of cancer inhibition pharmaceutical composition” (LAUNX BIOMEDICAL CO., LTD., priority 2014, dated 2018):
Counter-ions that a name gives are not always drawn. Like-named read-outs stand apart in the source and are kept apart here.

How the values were obtained:
Format in all cases: cell-based, human
cancer cell lines = assay: Cell viability analysis (WST-1) on cancer cell lines; conditions: drug 10 μM, 72 hours, WST-1; Table 3
[1] = system: HI650 (Lung Adenocarcinoma); assay: Cell viability analysis, lung cancer HI650; conditions: Homo sapiens
[2] = system: A549 (Lung Adenocarcinoma); assay: Cell viability analysis, lung cancer A549; conditions: Homo sapiens
[3] = system: AGS (Gastric Adenocarcinoma); assay: Cell viability analysis, gastric cancer AGS; conditions: Homo sapiens
[4] = system: MKN-45 (Gastric Adenocarcinoma); assay: Cell viability analysis, gastric cancer MKN-45; conditions: Homo sapiens
[5] = system: HepG2 (Hepatocellular Carcinoma); assay: Cell viability analysis, hepatic cancer HepG2; conditions: Homo sapiens
[6] = system: LoVo (Colorectal Adenocarcinoma); assay: Cell viability analysis, colon cancer LoVo; conditions: Homo sapiens, LoVo
[7] = system: A375 (Amelanotic Melanoma); assay: Cell viability analysis, skin cancer A375; conditions: Homo sapiens
[8] = system: HeLa (Cervix Adenocarcinoma); assay: Cell viability analysis, cervical cancer HeLa; conditions: Homo sapiens, HeLa
[9] = system: TSGH-8301 (Urinary Bladder Carcinoma); assay: Cell viability analysis, bladder cancer TSGH-8301; conditions: Homo sapiens
[10] = system: MCF7 (Mammary Gland, Adenocarcinoma); assay: Cell viability analysis, breast cancer MCF7; conditions: Homo sapiens
[11] = system: HL-60 (Acute Promyelocytic Leukemia); assay: Cell viability analysis, leukemia HL-60; conditions: Homo sapiens
[12] = system: PC3 (p53−) (Prostate Adenocarcinoma); assay: Cell viability analysis, prostate cancer PC3; conditions: Homo sapiens, 72 h, read-out: cell viability (survival rate), PC3, drug 10 μM, 72 hours, WST-1, OD450 nm
[13] = NCI-H1650, 72 h, read-out: cell viability (survival rate), H1650, drug 10 μM, 72 hours, WST-1, OD450 nm
[14] = A549, 72 h, read-out: cell viability (survival rate), A549, drug 10 μM, 72 hours, WST-1, OD450 nm
[15] = 72 h, read-out: cell viability (survival rate), AGS, drug 10 μM, 72 hours, WST-1, OD450 nm
[16] = MKN-45, 72 h, read-out: cell viability (survival rate), MKN-45, drug 10 μM, 72 hours, WST-1, OD450 nm
[17] = HepG2, 72 h, read-out: cell viability (survival rate), HepG2, drug 10 μM, 72 hours, WST-1, OD450 nm
[18] = 72 h, read-out: cell viability (survival rate), LoVo, drug 10 μM, 72 hours, WST-1, OD450 nm
[19] = A-375, 72 h, read-out: cell viability (survival rate), A375, drug 10 μM, 72 hours, WST-1, OD450 nm
[20] = 72 h, read-out: cell viability (survival rate), HeLa, drug 10 μM, 72 hours, WST-1, OD450 nm
[21] = 72 h, read-out: cell viability (survival rate), TSGH, drug 10 μM, 72 hours, WST-1, OD450 nm
[22] = MCF7, 72 h, read-out: cell viability (survival rate), MCF7, drug 10 μM, 72 hours, WST-1, OD450 nm
[23] = HL-60, 72 h, read-out: cell viability (survival rate), HL-60, drug 10 μM, 72 hours, WST-1, OD450 nm

O=c1[nH]cnc2c1ncn2[C@H]1CC[C@@H](CO)O1 [Didanosine (Videx), Didanosine]
inhibition effect on different cancer cell lines (cancer cell lines): significant inhibition effect
viability at 10 µM [1, 13]: 64.2%
viability at 10 µM [2, 14]: 67.5%
viability at 10 µM [3, 15]: 48.7%
viability at 10 µM [4, 16]: 62%
viability at 10 µM [5, 17]: 119%
viability at 10 µM [6, 18]: 95.1%
viability at 10 µM [7, 19]: 77.2%
viability at 10 µM [8, 20]: 80.3%
viability at 10 µM [9, 21]: 76.7%
viability at 10 µM [10, 22]: 78.4%
viability at 10 µM [11, 23]: 126%

Nc1ccc(S(N)(=O)=O)cc1 [Sulfanilamide]
inhibition effect on different cancer cell lines (cancer cell lines): significant inhibition effect
viability at 10 µM [1, 13]: 66.7%
viability at 10 µM [2, 14]: 82.7%
viability at 10 µM [3, 15]: 65.3%
viability at 10 µM [4, 16]: 59.1%
viability at 10 µM [6, 18]: 85%
viability at 10 µM [7, 19]: 84.6%
viability at 10 µM [8, 20]: 82.1%
viability at 10 µM [12]: 111%
viability at 10 µM [9, 21]: 76.5%
viability at 10 µM [10, 22]: 105%
viability at 10 µM [11, 23]: 112%

C[C@]12CCC(=O)C=C1CC[C@@H]1[C@@H]2[C@@H](O)C[C@@]2(C)[C@H]1CC[C@]2(O)C(=O)CO [Hydrocortisone (Cortisol), Hydrocortisone]
inhibition effect on different cancer cell lines (cancer cell lines): significant inhibition effect
viability at 10 µM [1, 13]: 66.1%
viability at 10 µM [2, 14]: 73.6%
viability at 10 µM [3, 15]: 77.5%
viability at 10 µM [4, 16]: 81.3%
viability at 10 µM [5, 17]: 109%
viability at 10 µM [6, 18]: 83.3%
viability at 10 µM [7, 19]: 87.6%
viability at 10 µM [8, 20]: 86.1%
viability at 10 µM [9, 21]: 125%
viability at 10 µM [10, 22]: 76.9%
viability at 10 µM [11, 23]: 105%

C=C(NC(=O)C(=C)NC(=O)c1csc(C2=N[C@@H]3c4csc(n4)[C@H]4NC(=O)c5csc(n5)[C@H]([C@](C)(O)[C@@H](C)O)NC(=O)[C@H]5CSC(=N5)/C(=C/C)NC(=O)[C@H]([C@@H](C)O)NC(=O)c5csc(n5)[C@]3(CC2)NC(=O)[C@H](C)NC(=O)C(=C)NC(=O)[C@H](C)NC(=O)[C@H]([C@@H](C)CC)N[C@@H]2C=Cc3c([C@H](C)O)cc(nc3[C@H]2O)C(=O)O[C@@H]4C)n1)C(N)=O [Thiostrepton]
inhibition effect on different cancer cell lines (cancer cell lines): significant inhibition effect
viability at 10 µM ([1]; NCI-H1650, drug 10 μM, 72 hours, WST-1, OD450 nm, read-out: cell viability (survival rate), H1650): 45.4%
viability at 10 µM ([2]; A549, drug 10 μM, 72 hours, WST-1, OD450 nm, read-out: cell viability (survival rate), A549): 62.2%
viability at 10 µM ([3]; drug 10 μM, 72 hours, WST-1, OD450 nm, read-out: cell viability (survival rate), AGS): 25.7%
viability at 10 µM ([4]; MKN-45, drug 10 μM, 72 hours, WST-1, OD450 nm, read-out: cell viability (survival rate), MKN-45): 56.7%
viability at 10 µM ([5]; HepG2, drug 10 μM, 72 hours, WST-1, OD450 nm, read-out: cell viability (survival rate), HepG2): 49.2%
viability at 10 µM ([6]; drug 10 μM, 72 hours, WST-1, OD450 nm, read-out: cell viability (survival rate), LoVo): 52.9%
viability at 10 µM ([7]; A-375, drug 10 μM, 72 hours, WST-1, OD450 nm, read-out: cell viability (survival rate), A375): 27.6%
viability at 10 µM ([8]; drug 10 μM, 72 hours, WST-1, OD450 nm, read-out: cell viability (survival rate), HeLa): 37.8%
viability at 10 µM ([9]; drug 10 μM, 72 hours, WST-1, OD450 nm, read-out: cell viability (survival rate), TSGH): 20.1%
viability at 10 µM ([10]; MCF7, drug 10 μM, 72 hours, WST-1, OD450 nm, read-out: cell viability (survival rate), MCF7): 65%
viability at 10 µM ([11]; HL-60, drug 10 μM, 72 hours, WST-1, OD450 nm, read-out: cell viability (survival rate), HL-60): 37.8%

Fc1ccc([C@@H]2CCNC[C@H]2COc2ccc3c(c2)OCO3)cc1 [Paroxetine HCl]
inhibition effect on different cancer cell lines (cancer cell lines): significant inhibition effect
viability at 10 µM [1, 13]: 44.1%
viability at 10 µM [2, 14]: 80.1%
viability at 10 µM [3, 15]: 21.5%
viability at 10 µM [4, 16]: 49.2%
viability at 10 µM [7, 19]: 31.9%
viability at 10 µM [8, 20]: 42.1%
viability at 10 µM [12]: 70.6%
viability at 10 µM [9, 21]: 56.4%
viability at 10 µM [10, 22]: 56.4%
viability at 10 µM [11, 23]: 79.1%

Oc1ccc(C=Cc2cc(O)cc(O)c2)cc1 [Resveratrol]
inhibition effect on different cancer cell lines (cancer cell lines): significant inhibition effect
viability at 10 µM [1, 13]: 54.6%
viability at 10 µM [2, 14]: 72.5%
viability at 10 µM [3, 15]: 47.9%
viability at 10 µM [4, 16]: 91.8%
viability at 10 µM [6, 18]: 83.2%
viability at 10 µM [7, 19]: 53%
viability at 10 µM [8, 20]: 108%
viability at 10 µM [12]: 75%
viability at 10 µM [9, 21]: 85.3%
viability at 10 µM [10, 22]: 71.8%
viability at 10 µM [11, 23]: 76.4%

Clc1ccc(C(Cn2ccnc2)OCc2csc3c(Cl)cccc23)c(Cl)c1 (stereo not drawn) [Sertaconazole nitrate]
inhibition effect on different cancer cell lines (cancer cell lines): significant inhibition effect
viability at 10 µM [1, 13]: 96.3%
viability at 10 µM [2, 14]: 75.4%
viability at 10 µM [3, 15]: 97.1%
viability at 10 µM [4, 16]: 69.5%
viability at 10 µM [5, 17]: 77.4%
viability at 10 µM [6, 18]: 94.9%
viability at 10 µM [7, 19]: 52%
viability at 10 µM [8, 20]: 58.9%
viability at 10 µM [9, 21]: 89.4%
viability at 10 µM [10, 22]: 76.4%
viability at 10 µM [11, 23]: 73.4%

CCn1cc(C(=O)O)c(=O)c2ccc(C)nc21 [Nalidixic acid (NegGram), Nalidixic acid]
inhibition effect on different cancer cell lines (cancer cell lines): significant inhibition effect
viability at 10 µM [1, 13]: 72%
viability at 10 µM [2, 14]: 83.8%
viability at 10 µM [3, 15]: 57.3%
viability at 10 µM [4, 16]: 54.9%
viability at 10 µM [5, 17]: 96.8%
viability at 10 µM [6, 18]: 91.5%
viability at 10 µM [7, 19]: 87.9%
viability at 10 µM [8, 20]: 95.8%
viability at 10 µM [9, 21]: 46.3%
viability at 10 µM [10, 22]: 86%
viability at 10 µM [11, 23]: 113%

Nc1ccn([C@H]2CC[C@@H](CO)O2)c(=O)n1 [Zalcitabine]
inhibition effect on different cancer cell lines (cancer cell lines): significant inhibition effect
viability at 10 µM [1, 13]: 86.4%
viability at 10 µM [2, 14]: 66.3%
viability at 10 µM [3, 15]: 69.1%
viability at 10 µM [4, 16]: 70.4%
viability at 10 µM [5, 17]: 96.9%
viability at 10 µM [6, 18]: 91%
viability at 10 µM [7, 19]: 83.5%
viability at 10 µM [8, 20]: 89.2%
viability at 10 µM [9, 21]: 79%
viability at 10 µM [10, 22]: 52.7%
viability at 10 µM [11, 23]: 119%

[H]/N=C(/N)NS(=O)(=O)c1ccc(N)cc1 [Sulfaguanidine]
inhibition effect on different cancer cell lines (cancer cell lines): significant inhibition effect
viability at 10 µM [1, 13]: 95.6%
viability at 10 µM [2, 14]: 82.2%
viability at 10 µM [3, 15]: 84%
viability at 10 µM [4, 16]: 83.5%
viability at 10 µM [5, 17]: 96.1%
viability at 10 µM [6, 18]: 78.9%
viability at 10 µM [7, 19]: 145%
viability at 10 µM [8, 20]: 113%
viability at 10 µM [9, 21]: 107%
viability at 10 µM [10, 22]: 92.6%
viability at 10 µM [11, 23]: 99.1%

Cc1cc2nc3c(=O)[nH]c(=O)nc-3n(C[C@H](O)[C@H](O)[C@H](O)CO)c2cc1C [Riboflavin (Vitamin B2), Riboflavin]
inhibition effect on different cancer cell lines (cancer cell lines): significant inhibition effect
viability at 10 µM [1, 13]: 51.1%
viability at 10 µM [2, 14]: 67.6%
viability at 10 µM [3, 15]: 74.9%
viability at 10 µM [4, 16]: 87.3%
viability at 10 µM [6, 18]: 83.3%
viability at 10 µM [7, 19]: 89.7%
viability at 10 µM [8, 20]: 128%
viability at 10 µM [12]: 79.4%
viability at 10 µM [9, 21]: 79.7%
viability at 10 µM [11, 23]: 90%

CC(=O)OCC1=C(C(=O)O)N2C(=O)[C@@H](NC(=O)CSc3ccncc3)[C@H]2SC1 [Cephapirin Sodium]
inhibition effect on different cancer cell lines (cancer cell lines): significant inhibition effect
viability at 10 µM [1, 13]: 76.2%
viability at 10 µM [2, 14]: 57.7%
viability at 10 µM [3, 15]: 79.8%
viability at 10 µM [4, 16]: 69.1%
viability at 10 µM [5, 17]: 79.8%
viability at 10 µM [6, 18]: 92.8%
viability at 10 µM [7, 19]: 50.2%
viability at 10 µM [8, 20]: 69.2%
viability at 10 µM [9, 21]: 78.2%
viability at 10 µM [10, 22]: 49.5%
viability at 10 µM [11, 23]: 84.3%

C[C@@H](c1ncncc1F)[C@](O)(Cn1cncn1)c1ccc(F)cc1F [Voriconazole]
inhibition effect on different cancer cell lines (cancer cell lines): significant inhibition effect
viability at 10 µM [1, 13]: 102%
viability at 10 µM [2, 14]: 82.9%
viability at 10 µM [3, 15]: 86.1%
viability at 10 µM [4, 16]: 104%
viability at 10 µM [7, 19]: 102%
viability at 10 µM [8, 20]: 92.6%
viability at 10 µM [12]: 97%
viability at 10 µM [9, 21]: 53.9%
viability at 10 µM [10, 22]: 90.1%
viability at 10 µM [11, 23]: 94.3%
